We go through 8 compounds from patent US9283243B2, “CD36 inhibition to control obesity and insulin sensitivity” (CORNELL UNIVERSITY CORNELL CENTER FOR TECHNOLOGY, …, priority 2010, dated 2016).

“Also recorded” adds a separate entry of the source. Square brackets hold non-standard residues; d marks the D form. Peptide text beside a SMILES is read from it. dTrp(2-Me) = Cc1[nH]c2ccccc2c1C[C@@H](N)C(=O)O

In data set [1] the target is T1, CD36 (Homo sapiens, UniProt P16671). As to the kind of experiment: High throughput screen for CD36 antagonists. The source says:
Candidate modulator compounds from libraries of synthetic or natural compounds can be screened by methods known in the art (see Chinese patent number ZL200510072269.1, Publication No: CN1868546, and Chinese patent application number 200910147634.9, each hereby incorporated in its entirety by reference). Synthetic compound libraries are commercially available from a number of companies including Maybridge Chemical Co. (Trevillet, Cornwall, UK), Comgenex (Princeton, N.J.), Brandon Associates (Merrimack, N.H.), and Microsource (New Milford, Conn.). Combinatorial libraries are available or can be prepared according to known synthetic techniques. Alternatively, libraries of natural compounds in the form of bacterial, fungal, plant and animal extracts are available from e.g., Pan Laboratories (Bothell, Wash.) or MycoSearch (NC), or are readily producible by methods well known in the art. Additionally, natural and synthetically produced libraries and compounds can be further modified through conventional chemical and biochemical techniques.
The use of high throughput screening has allowed the identification of compounds that potently antagonize CD36 in vitro. Following isolation of CD36 antagonists by in vitro testing, experiments can be conducted to test the efficacy in vivo. […]

The subject of data set [2] is hyperlipidemic ApoE KO (AKO) mice. The data set is described as follows: Fasting blood glucose and glucose tolerance test in SAB-treated high fat fed ApoE KO mice. In kind it is in vivo, mouse. The source says:
(§1) FIG. 1A-1I. In vivo effect of chronic SAB treatment on physiological responses. (A), Body weight changes in ApoE KO mice fed a high fat diet for 8 weeks in vehicle (Veh)- and salvianolic acid (SAB)-treated mice. (B), Pictures were taken at the end of 8 weeks of high fat diet. […] (C), Fasting blood glucose levels. (D), Glucose tolerance test. (E), Area under curve (AUC). (F), CD36 mRNA levels in peritoneal macrophages and spleen from vehicle and SAB treated mice. (G), Measurement of lipid content from blood vessels. Lipid extraction and determination was performed using published methods (Kim et al., 2008). (H), Fold increases of plasma cholesterol levels 4 and 8 weeks after high fat diet. (I), Oil red O staining in the liver of vehicle and SAB treated mice. […] Number in parentheses indicates number of animals for the measurements.
SAB treatment improves insulin sensitivity. Fasting blood glucose levels were similar in SAB-treated and control mice at zero, four, and eight weeks of treatment (FIG. 1C). However, when mice were challenged with glucose tolerance test (an intraperitoneal injection of […]), blood glucose was cleared much faster in SAB-treated mice (45 minutes after challenge, initial blood glucose spike reduced by 75%) relative to vehicle-treated mice (45 minutes after challenge, initial spike in blood glucose reduced by less than 10%; FIG. 1D).

Data set [3] deals with CD36 mRNA. The data set is described as follows: CD36 gene expression in peritoneal macrophages and spleen from vehicle and SAB-treated mice. The following applies: SAB-treated vs vehicle mice. In kind it is in vivo, mouse.
Excerpt: as §1
SAB treatment reduces CD36 expression in peritoneal macrophages. Since CD36 is expressed in monocytes and macrophages, CD36 gene expression was compared in peritoneal macrophages and the spleen, a peripheral organ that serves as a reservoir of monocytes, from vehicle and SAB-treated mice. CD36 mRNA levels were reduced in both peritoneal and spleen macrophages of SAB-treated mice (FIG. 1F). […]

In data set [4] the test system is ApoE KO mouse macrophages. As to the kind of experiment: Foam cell assay / lipid accumulation in primary macrophages incubated with oxLDL. In kind it is cell-based. The conditions noted are these: 48 h, vs oxLDL alone. The protocol: FIG. 5. Effects of SAB on lipid accumulation in ApoE KO mouse macrophages. Primary macrophages were seeded in 4 chamber slides and then incubated with 20 μg/ml oxLDL and/or different concentrations of SAB for 48 h. (A-D) Lipids were stained with oil red O and examined by microscopy; representative images are shown. (A), vehicle only; (B), 25 μM SAB treatment; (C), 20 μg/ml oxLDL; (D), 20 μg/ml oxLDL+25 μM SAB. Scale bar, 50 μm; higher magnification micrographs of oil red O stains were shown in upper-right of each picture. (E-F), Quantification for foam cell assay in primary macrophage. White bar, macrophages incubated with vehicle only (no oxLDL or SAB); black bar, incubated with 20 μg/ml oxLDL; grey bars, incubated with 20 μg/ml oxLDL plus 10, 25 or 100 μM SAB (SAB concentration listed below each bar); (E), Degree of lipid accumulation measured as intensity of integrated optical density; (F), Foam cell average area compared to average area of control macrophages incubated with vehicle. Control (vehicle-treated) average individual macrophage cell size/ area was normalized as 1; macrophages treated with oxLDL show increased individual relative cell area resulting from lipid internalization (black bar); SAB treatment (grey bars) reduced lipid internalization and relative cell size/area. n=3-6 cells/group. **,***p<0.01, 0.001 compared with no oxLDL(0).
SAB reduces lipid accumulation in ApoE KO mouse macrophages. Primary macrophages were isolated from ApoE KO mice and incubated with oxidized low density lipoproteins (oxLDL) and/or different concentrations of SAB for 48 h, then stained for lipid accumulation. […] Thus, CD36 antagonists can prevent accumulation of fat and lipids in cells subject to lipid-rich environments.
SAB reduces lipid accumulation and foam cell formation. Primary macrophages cultured from ApoE KO mice show a low intensity of optical density (IOD) commensurate with small cellular area (FIGS. 5E and 5F, white bar). […]

For data set [5], the system named is hyperlipidemic ApoE KO (AKO) mice. The data set is described as follows: Chronic SAB treatment of ApoE KO mice fed a high fat diet for 8 weeks: body weight, fat, cholesterol, liver and vessel lipid. Format: in vivo, mouse. The conditions noted are these: for average visceral fat weight: p<0.001.
Excerpt: as §1
FIG. 2A-2B. Visceral fat weight in high fat fed ApoE KO mice treated with SAB (100 mg/kg) for 8 weeks. 100 mg/kg SAB or vehicle (veh) was injected every other day by subcutaneous injection. n=8-10/group. […] (B), SAB reduced visceral fat weight from average=81 mg/animal to average=32 mg/animal. ***, p<0.001.
Chronic SAB treatment in hyperlipidemic ApoE KO (AKO) mice reduces weight gain and visceral fat accumulation. […] Feeding a high fat diet to the ApoE KO mice for 8 weeks increases plasma cholesterol levels approximately 5 fold (Kim et al., 2008). Six week old male ApoE KO (HL AKO) mice were fed a high fat diet for 8 weeks with or without SAB (100 mg/kg, subcutaneously every other day). […] The difference in weight between the groups was apparent by the 3rd week of treatment (FIG. 1A). […] Thus, SAB reduces body weight and fat accumulation, particularly visceral/abdominal fat accumulation and liver fat deposits, and also lowers plasma cholesterol.
Visceral fat weight in high fat fed ApoE KO mice treated with either vehicle or SAB (100 mg/kg) for 8 weeks. 100 mg/kg SAB or vehicle (veh) was injected every other day by subcutaneous injection. n=8-10 mice/group, ***, p<0.001. […] SAB reduced visceral fat weight by 60% (32 mg average visceral fat weight in SAB treated mice versus 81 mg average visceral fat weight in controls; FIG. 2B). This provides further evidence that CD36 antagonists can reduce fat accumulation, particularly visceral fat accumulation.

In data set [6] the target is T1, CD36. The conditions noted are these: Xu, Y et al., Anal Biochem 2010; cited from earlier work.
In data set [7] the target is T1, CD36. The following applies: Demers et al. 2004, cited from earlier work.
Data set [8] has as its system CD36. The conditions noted are these: literature, cited from earlier work.
Data set [9] relates to CD36 mRNA. The data set is described as follows: CD36 siRNA transfection in C8-D1A cells, CD36 mRNA levels. Format: cell-based. The following applies: 20 nM siRNA, 24h after transfection, N=4, vs negative control. The protocol:
FIG. 4. Efficacy of CD36 siRNA. 20 nM siRNA either singly or in combination were transfected in C8-D1A cells. CD36 mRNA levels were measured 24h later. N=4. Negative controls were adjusted to the amount of siRNA. **p<0.01, ***p<0.001 vs correponding control.
CD36 was inhibited using an RNAi technique. 20 nM siRNA either singly or in combination were transfected in C8-D1A cells. CD36 mRNA levels were measured 24h later. N=4. Negative controls were adjusted to the amount of siRNA. **p<0.01, ***p<0.001 vs correponding control.

Where [10] appears, read: 20 μg/ml oxLDL plus 10, 25 or 100 μM SAB.
The mark [11] stands for this setting: SAB 100 mg/kg s.c. every other day, high fat diet 8 weeks.

T1 sequence (P16671 whole entry): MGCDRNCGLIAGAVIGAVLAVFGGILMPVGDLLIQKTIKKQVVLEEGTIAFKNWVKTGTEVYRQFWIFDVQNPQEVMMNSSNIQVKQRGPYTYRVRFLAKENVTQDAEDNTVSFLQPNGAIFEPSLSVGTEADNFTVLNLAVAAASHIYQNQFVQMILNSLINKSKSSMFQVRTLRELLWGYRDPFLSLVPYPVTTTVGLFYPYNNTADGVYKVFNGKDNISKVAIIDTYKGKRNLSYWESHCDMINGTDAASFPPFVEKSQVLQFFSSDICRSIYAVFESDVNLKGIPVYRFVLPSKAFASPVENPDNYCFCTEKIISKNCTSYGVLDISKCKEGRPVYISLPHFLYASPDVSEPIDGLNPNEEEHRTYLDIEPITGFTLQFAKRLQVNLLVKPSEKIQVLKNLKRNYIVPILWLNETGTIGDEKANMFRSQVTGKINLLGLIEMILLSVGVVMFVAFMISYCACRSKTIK

Regarding `O=C(/C=C/c1ccc(O)c2c1[C@H](C(=O)O[C@H](Cc1ccc(O)c(O)c1)C(=O)O)C(c1ccc(O)c(O)c1)O2)O[C@@H](Cc1ccc(O)c(O)c1)C(=O)O` (stereo in doubt) [SAB, salvianolic acid B], the “CD36 antagonist identification in high throughput screen” value in data set [1] is “identified as a CD36 antagonist”. In data set [2] (45 minutes after challenge, intraperitoneal injection of 1.5 mg glucose/kg, vehicle less than 10%), the “reduction of initial blood glucose spike in glucose tolerance test” value was 75%. Further, the “AUCglucose (glucose area under the curve) in glucose tolerance test” value in data set [2] (SAB-treated vs vehicle-treated mice) is on record as “significant reduction”. Further, in data set [2] (zero, four, and eight weeks of treatment), the “fasting blood glucose levels vs control mice” value was “similar”. Besides, in [3], the “CD36 mRNA levels in peritoneal macrophages” value is “reduced” and the “CD36 mRNA levels in spleen macrophages” value is on record as “reduced”. Moreover, in data set [4] (20 μg/ml oxLDL + 25 μM SAB), the “lipid accumulation (oil red O staining)” value is “significantly reduced lipid accumulation”. Also, in [4] (setting [10]), the “lipid accumulation as intensity of optical density (IOD)” value is listed as “significantly reduced” and the “relative cell area (foam cell average area)” value is on record as “significantly reduced”. Further, the “reduction of visceral fat weight” value in [5] (SAB 100 mg/kg s.c. every other day, 8 weeks, vs controls) is 60%. Moreover, the “average visceral fat weight” value in data set [5] (SAB 100 mg/kg s.c. every other day, 8 weeks, controls 81 mg) worked out at 32 mg. Moreover, in [5] (SAB 100 mg/kg s.c. every other day, 8 weeks, vehicle 81 mg/animal), the “average visceral fat weight” value is reported as 32 mg/animal. In data set [5] (setting [11]), the “fat deposition in the liver (Oil red O staining)” value is listed as “profoundly reduced; also recorded: significantly reduced” and the “leaner compared to vehicle treated ApoE KO mice” value stood at 17%. Further, the abdominal fat accumulation result in data set [5] (SAB 100 mg/kg s.c. every other day, high fat diet 8 weeks, physical inspection) is reported as “Reduction in abdominal fat was evident; also recorded: substantially reduced; also recorded: either minimal or absent”. Besides, the plasma cholesterol levels entry in data set [5] (SAB 100 mg/kg s.c. every other day, high fat diet, 4 and 8 weeks) is “significantly reduced”. Besides, the “rate of weight gain (weekly body weight)” value in [5] (SAB 100 mg/kg subcutaneously every other day, high fat diet 8 weeks, vs vehicle) is “significantly reduced”. Moreover, in [5] (preliminary analysis, SAB-treated vs vehicle mice), the “lipid content in the aorta and extended vessels” value was “trend toward lipid content reduction”.
Consider `O=C(/C=C/c1ccccc1)c1c[nH]c2ccccc12` [3-cinnamoyl indole], for which the “CD36 antagonist identification through high-throughput screening” value in [6] is reported as “identified”.
As to `CCCCCc1c2[n+](cc3c(OC)c(OC)ccc13)CCc1cc3c(cc1-2)OCO3` [13 pentyl berberine], the “CD36 antagonist identification through high-throughput screening” value in data set [6] is “identified”.
With `Cc1[nH]c2ccccc2c1C[C@@H](NC(=O)[C@@H](N)Cc1cnc[nH]1)C(=O)N[C@@H](C)C(=O)N[C@@H](Cc1c[nH]c2ccccc12)C(=O)N[C@H](Cc1ccccc1)C(=O)N[C@@H](CCCCN)C(N)=O` [hexarelin] (H-H[dTrp(2-Me)]AW[dF]K-NH2), the “binding to CD36 receptors” value in [7] is “binds”. The “CD36-mediated uptake of oxLDLs” value in [7] (binding site competition) is reported as “blocks”.
On to `Cc1c(C)c2c(c(C)c1O)CC[C@@](C)(CCC[C@H](C)CCC[C@H](C)CCCC(C)C)O2` [α-tocopherol], for which the “uptake of oxLDLs into macrophages” value in [8] is on record as “can reduce”. In [8] (macrophages), the “expression of CD36” value is listed as “can reduce”.
As for “MSS202775: CD36 siRNA from exon9, SEQ ID NO: 1 and 2 (chain 1 UAGCUUGGCCAAUAGGACAAAUUCC; chain 2 GGAAUUUGUCCUAUUGGCCAAGCUA; chemistry not given here)”, the “CD36 gene expression (CD36 mRNA levels)” value is listed as “reduced CD36 gene expression significantly” in data set [9] and “most effective” in [9] (listed as siRNA 75).
On to “MSS202776: CD36 siRNA, exon7, SEQ ID NO: 3 and 4 (chain 1 CUUGUUUGGAACACAGAAGACUUGG; chain 2 CCAAGUCUUCUAUGUUCCAAACAAG; chemistry not given here)”, for which the “CD36 gene expression (CD36 mRNA levels)” value in [9] is recorded as “reduced CD36 gene expression significantly”.
Still for that read-out and setting: with “MSS202777: CD36 siRNA, exon11, SEQ ID NO: 5 and 6 (chain 1 ACACCAUAAGAUGUACAGUUAUUGG; chain 2 CCAAUAACUGUACAUCUUAUGGUGU; chemistry not given here)” the entry was “reduced CD36 gene expression significantly”.
